# Measurements as given in ChEMBL document CHEMBL1909046, “DrugMatrix in vitro pharmacology data”.
# pIC50, pKi: −log10 of the molar value.
# Columns and labels:
# [1] = molecular target: 5-hydroxytryptamine receptor 1B (Rattus norvegicus, UniProt P28564); assay type: cell membranes, Wistar, Cerebral cortex, Membrane; note: in other assays of this panel Not Active means under 50% inhibition at 10 µM
# [2] = molecular target: Acetylcholinesterase (Homo sapiens, UniProt P22303); assay: DRUGMATRIX: Acetylcholinesterase enzyme inhibition (substrate: acetylthiocholine); assay type: cell-based, HEK293; conditions: hek293; Not Active = under 50% inhibition at 10 µM
# Sequence of Acetylcholinesterase (P22303 whole entry): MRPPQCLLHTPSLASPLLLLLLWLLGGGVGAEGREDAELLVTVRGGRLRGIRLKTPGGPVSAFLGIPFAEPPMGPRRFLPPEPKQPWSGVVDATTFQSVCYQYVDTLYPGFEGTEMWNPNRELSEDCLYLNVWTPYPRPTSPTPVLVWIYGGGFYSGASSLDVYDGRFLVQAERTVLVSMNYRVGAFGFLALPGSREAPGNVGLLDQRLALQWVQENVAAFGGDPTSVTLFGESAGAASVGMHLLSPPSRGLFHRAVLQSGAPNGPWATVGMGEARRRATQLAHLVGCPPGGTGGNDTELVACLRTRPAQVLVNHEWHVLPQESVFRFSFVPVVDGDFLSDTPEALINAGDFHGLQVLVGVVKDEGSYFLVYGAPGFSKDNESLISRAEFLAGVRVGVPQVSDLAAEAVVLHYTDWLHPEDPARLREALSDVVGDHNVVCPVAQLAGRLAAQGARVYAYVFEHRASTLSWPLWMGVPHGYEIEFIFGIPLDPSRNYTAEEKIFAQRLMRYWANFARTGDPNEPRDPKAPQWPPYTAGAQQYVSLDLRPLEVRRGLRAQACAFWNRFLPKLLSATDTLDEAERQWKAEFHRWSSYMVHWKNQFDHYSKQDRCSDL
# [3] = molecular target: D(3) dopamine receptor (Homo sapiens, UniProt P35462); assay: DRUGMATRIX: Dopamine D3 radioligand binding (ligand: [3H] Spiperone); assay type: cell membranes, CHO, Membrane; conditions: for IC50 / Ki: cho
# Sequence of D(3) dopamine receptor (P35462 whole entry): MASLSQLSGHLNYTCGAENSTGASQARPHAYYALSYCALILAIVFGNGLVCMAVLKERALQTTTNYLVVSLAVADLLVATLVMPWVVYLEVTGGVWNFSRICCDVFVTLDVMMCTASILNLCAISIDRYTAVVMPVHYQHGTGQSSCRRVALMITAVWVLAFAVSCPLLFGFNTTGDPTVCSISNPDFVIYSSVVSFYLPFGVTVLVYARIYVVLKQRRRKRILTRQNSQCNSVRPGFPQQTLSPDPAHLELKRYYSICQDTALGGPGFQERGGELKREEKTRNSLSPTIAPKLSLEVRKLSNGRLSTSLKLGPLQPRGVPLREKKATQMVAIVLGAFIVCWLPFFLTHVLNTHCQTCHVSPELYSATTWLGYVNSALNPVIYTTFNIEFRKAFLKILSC
# [4] = molecular target: Sigma non-opioid intracellular receptor 1 (Homo sapiens, UniProt Q99720); assay: DRUGMATRIX: Sigma1 radioligand binding (ligand: [3H] Haloperidol); assay type: cell membranes, Jurkat, Membrane; conditions: Not Active = under 50% inhibition at 10 µM; for IC50 / Ki: jurkat; for pIC50: read-out: IC50; for pKi: read-out: Ki
# Sequence of Sigma non-opioid intracellular receptor 1 (Q99720 whole entry): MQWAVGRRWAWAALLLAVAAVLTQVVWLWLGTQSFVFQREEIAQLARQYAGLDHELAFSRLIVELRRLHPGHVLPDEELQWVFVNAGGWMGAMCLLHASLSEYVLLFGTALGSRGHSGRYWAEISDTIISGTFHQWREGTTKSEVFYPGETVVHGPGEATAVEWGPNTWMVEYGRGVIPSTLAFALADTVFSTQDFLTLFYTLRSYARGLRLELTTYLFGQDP
# [5] = DRUGMATRIX: Nicotinic Acetylcholine radioligand binding (ligand: [125I] Epibatidine); assay type: cell membranes, Membrane; conditions: imr-32; Not Active = under 50% inhibition at 10 µM
# [6] = DRUGMATRIX: Atrial Natriuretic Factor (ANF) radioligand binding (ligand: [125I] ANF (rat)); assay type: cell membranes, Cavia porcellus, Dunkin-Hartley, Adrenal gland, Membrane; conditions: Not Active = under 50% inhibition at 10 µM
# Sequence of 5-hydroxytryptamine receptor 1B (P28564 whole entry): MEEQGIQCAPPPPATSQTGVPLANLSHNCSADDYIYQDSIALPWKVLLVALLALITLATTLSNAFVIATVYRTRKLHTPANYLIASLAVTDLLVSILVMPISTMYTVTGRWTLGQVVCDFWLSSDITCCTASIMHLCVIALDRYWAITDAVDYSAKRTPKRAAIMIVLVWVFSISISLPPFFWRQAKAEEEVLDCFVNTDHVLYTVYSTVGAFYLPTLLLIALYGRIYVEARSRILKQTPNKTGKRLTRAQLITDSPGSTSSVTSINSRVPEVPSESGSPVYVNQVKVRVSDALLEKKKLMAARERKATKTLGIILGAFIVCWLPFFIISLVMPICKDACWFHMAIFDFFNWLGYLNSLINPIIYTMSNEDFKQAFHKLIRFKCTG
Molecule,IC50 [1],IC50 [2],IC50 [3],IC50 [4],IC50 [5],Ki [5],IC50 [6],Ki [6],pIC50 [4],pKi [4],pIC50 ([3]; read-out: IC50),pKi ([3]; read-out: Ki),Ki [1],Ki [2],Ki [3],Ki [4]
Nc1nc2c(ncn2CCC(CO)CO)c(=O)[nH]1 [PENCICLOVIR],Not Active,Not Active,Not Active,Not Active,Not Active,Not Active,Not Active,Not Active,,,,,,,,
C=C(C)C1(O)OC(=O)C=C1OC (stereo unspecified) [PENICILLIC ACID],Not Active,Not Active,Not Active,Not Active,Not Active,Not Active,Not Active,Not Active,,,,,,,,
CC1(C)S[C@@H]2[C@H](NC(=O)Cc3ccccc3)C(=O)N2[C@H]1C(=O)O [PENICILLIN G],Not Active,Not Active,Not Active,Not Active,Not Active,Not Active,Not Active,Not Active,,,,,,,,
C1CCC(C(CC2CCCCN2)C2CCCCC2)CC1 (stereo unspecified) [PERHEXILINE],Not Active,Not Active,Not Active,,Not Active,Not Active,Not Active,Not Active,5.59,5.96,,,,,,
CCOc1ccc(NC(C)=O)cc1 [PHENACETIN],Not Active,Not Active,Not Active,Not Active,Not Active,Not Active,Not Active,Not Active,,,,,,,,
Cc1ccc(N(CC2=NCCN2)c2cccc(O)c2)cc1 [PHENTOLAMINE],Not Active,Not Active,Not Active,Not Active,Not Active,Not Active,Not Active,Not Active,,,,,,,,
CNNCc1ccc(C(=O)NC(C)C)cc1 [PROCARBAZINE],Not Active,Not Active,Not Active,Not Active,Not Active,Not Active,Not Active,Not Active,,,,,,,,
CN(C)CCCN1c2ccccc2Sc2ccccc21 [PROMAZINE],Not Active,Not Active,,,Not Active,Not Active,Not Active,Not Active,6.57,6.94,6.69,7.16,,,,
CC(O)CO (stereo unspecified) [PROPYLENE GLYCOL],Not Active,Not Active,Not Active,Not Active,Not Active,Not Active,Not Active,Not Active,,,,,,,,
CADMIUM ACETATE,Not Active,Not Active,Not Active,Not Active,Not Active,Not Active,Not Active,Not Active,,,,,Not Active,Not Active,Not Active,Not Active
LEAD (II) ACETATE,Not Active,Not Active,Not Active,Not Active,Not Active,Not Active,Not Active,Not Active,,,,,Not Active,Not Active,Not Active,Not Active
LIPOPOLYSACCHARIDE E. COLI O55:B5,Not Active,Not Active,Not Active,Not Active,Not Active,Not Active,Not Active,Not Active,,,,,Not Active,Not Active,Not Active,Not Active
